Source: PMC9249808, “A novel lipidic peptide with potential to promote balanced effector-regulatory T cell responses” (Scientific Reports, 2022)

Key:
[1] = system: CD4+ T cells within T cell cultures; experiment: Flow cytometry of CD4+ T cells within isolated CD3+ T cell cultures (anti-CD3/anti-CD28); format: cell-based, human; details: anti-CD3/anti-CD28, 72 h, MFI, Fig. 1b (IK14004), Fig. 1e (IK14000)
Description: CD3^+ T cells were isolated from PBMCs by negative selection using immune-magnetic separation (Stem cell kits), resuspended in complete medium as used for PBMCs at 0.5 × 10^6/mL and plated at a density of 5 × 10^4 per well (100 µL) in 96-well, flat bottom culture plates. CD4^+ and CD8^+ T cell populations were isolated by immunomagnetic separation and resuspended in RPMI-10 at 0.5 × 10^6/mL with a plating density of 0.5 × 10^5 per well. Either the lipidic peptide, IK14004, or IK14000 ([…]) was added to wells at a final volume of 50 µL per well, together with anti-CD3 anti-CD28 coated Dynabeads (ThermoFisher) at a 4:1 cell:bead ratio (1.25 × 10^4/well, 50 µL volume) and cells cultured for 72 h at 37 °C and 5% CO2. […]
For flow cytometry and ELISA experiments, data from IK14004 and vehicle groups were analysed using parametric statistical procedures. […]

[2] = system: CD4+ T cells within PBMC cultures; experiment: Intracellular IFN-γ in CD4+ T cells within PBMC cultures (flow cytometry); format: cell-based, human; details: anti-CD3, 24 h, MFI, n = 4, Fig. 5c
Description: PBMCs were resuspended in RPMI-10 (RPMI-1640; ThermoFisher) supplemented with 10% heat inactivated Foetal Bovine Serum (LabTech), 100 U/mL penicillin, 100 µg/mL streptomycin (ThermoFisher), 2 mM L-glutamine (ThermoFisher), and 50 µM β-mercaptoethanol (ThermoFisher) at 1 × 10^6 cells/mL and plated at a density of 1 × 10^5 per well (100 µL) in 96-well, flat-bottom culture plates. PBMCs were stimulated with 1 µg/mL of soluble anti-CD3 (BioLegend). The lipidic peptide, IK14004, and IK14000, i.e., […] minus conjugation to [{2}Adod]4, were solubilised as a 1 mM stock solution in sterile milliQ water (Lonza) and added to wells at a final volume of 50 µL per well together with soluble anti-CD3 (1 µg/mL final, 50 µL per well) (Biolegend). To test the effect of peptides, cells were cultured for 24–72 h at 37 °C and 5% CO2. Vehicle controls in peptide-based experiments comprised 0.13% sterile milliQ water in culture medium whereas 0.1% DMSO in culture medium was used as vehicle control for comparison with the Lck inhibitor, A-770041, in the absence of peptides. […]

Lck-WT protein = experiment: Lck binding assay (non-cell-based ELISA); details: peptide coated 10 µg/mL in PBS, 4 °C 20 h; Lck-WT (mCherry, c-myc tag) 2 h room temperature, HRP anti myc, 450 nm; duplicate experiments, 3 technical replicates; negative control PBS; Fig. 6b
Description: Lck wild-type (Lck-WT) was prepared in CHO cells. The plasmid for the expression of Lck-WT protein was kindly provided by the research laboratory of Professor Katarina Gaus. The plasmid was encoded for mammalian cell expression of the Lck-WT protein with a C-terminal mCherry reporter. A twin-strep tag was incorporated at the N-terminal of the Lck-WT for purification, and a c-myc epitope tag was placed at the C-terminal, after mCherry for detection of protein expression. A midiprep DNA preparation of the plasmid was performed using the Macherey–Nagel Midi kit as per manufacturer’s instructions. For transient transfections plasmid DNA was transfected into CHO-S cells using 2 μg DNA mL^−1 cells at a concentration of 3 million cells mL^−1. DNA was complexed with polyethylenimine-Pro (PolyPlus) in Opti-Pro serum free medium (Life Technologies) at a DNA (μg) to PEI (μL) ratio of 1:4 (w:v) for 15 min prior to transfecting suspension adapted CHO cells. […]
The peptides, IK14004 and IK14000, were reconstituted into PBS at 1 mg/mL. […] 100 µL of 2 M sulphuric acid was added to stop the reaction and the absorbance values recorded at a wavelength of 450 nm using SpectraMax (Molecular Devices).

RSKAKNPLYR [IK14000]
CD25 expression in CD4+ T cells [1]: decrease in CD25 expression in CD4+ T cells at higher concentrations
intracellular expression of IFN-γ in CD4+ T cells [2]: unchanged
binding to Lck (Lck-WT protein): no different to the negative control
